# Legend:
# Format in all cases: in vivo
# Kochia (Kochia scoparia) [1] = assay: Test A preemergence; conditions: for Kochia plant response rating (0 to 100 scale, 0 is no effect, 100 is complete control): visual injury approx. 10 d
# How it was run: (§1)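 Greenhouse, ~10 d after spray; visual injury vs untreated controls, 0 = no effect, 100 = complete control. Preemergence: directed soil spray over planted seeds. Postemergence: plants 2–10 cm, 1–2 leaf stage. Loam/sand blend. Compound in non-phytotoxic solvent with surfactant.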
# [2] = test system: barnyardgrass (Echinochloa crus-galli); assay: Test A preemergence; conditions: for Barnyardgrass plant response rating (0 to 100 scale, 0 is no effect, 100 is complete control): visual injury approx. 10 d
# How it was run: as §1
# [3] = test system: giant foxtail (Setaria faberii); assay: Test A preemergence; conditions: for Foxtail, Giant plant response rating (0 to 100 scale, 0 is no effect, 100 is complete control): visual injury approx. 10 d
# How it was run: as §1
# [4] = test system: pigweed (Amaranthus retroflexus); assay: Test A preemergence; conditions: for Pigweed plant response rating (0 to 100 scale, 0 is no effect, 100 is complete control): visual injury approx. 10 d
# [5] = test system: ragweed (common ragweed, Ambrosia elatior); assay: Test A preemergence; conditions: for Ragweed plant response rating (0 to 100 scale, 0 is no effect, 100 is complete control): visual injury approx. 10 d
# How it was run: as §1
# [6] = test system: ryegrass, Italian (Italian ryegrass, Lolium multiflorum); assay: Test A preemergence; conditions: for Ryegrass, Italian plant response rating (0 to 100 scale, 0 is no effect, 100 is complete control): visual injury approx. 10 d
# How it was run: as §1
# [7] = test system: Galium (catchweed bedstraw, Galium aparine); assay: Test A postemergence; conditions: for Galium plant response rating: visual injury rating on 0 to 100 scale (0 no effect, 100 complete control)
# How it was run: as §1
# Kochia (Kochia scoparia) [8] = assay: Test A postemergence; conditions: for Kochia plant response rating: visual injury rating on 0 to 100 scale (0 no effect, 100 complete control)
# How it was run: as §1
# [9] = test system: barnyardgrass (Echinochloa crus-galli); assay: Test A postemergence; conditions: for Barnyardgrass plant response rating: visual injury rating on 0 to 100 scale (0 no effect, 100 complete control), approx. 10 d
# How it was run: as §1
# [10] = test system: blackgrass (Alopecurus myosuroides); assay: Test A postemergence; conditions: for Blackgrass plant response rating: visual injury rating on 0 to 100 scale (0 no effect, 100 complete control), approx. 10 d
# How it was run: as §1
# corn (Zea mays) = assay: Test A postemergence; conditions: for Corn plant response rating: visual injury rating on 0 to 100 scale (0 no effect, 100 complete control), approx. 10 d
# How it was run: as §1
# [11] = test system: giant foxtail (Setaria faberii); assay: Test A postemergence; conditions: for Foxtail, Giant plant response rating: visual injury rating on 0 to 100 scale (0 no effect, 100 complete control)
# How it was run: as §1
# [12] = test system: pigweed (Amaranthus retroflexus); assay: Test A postemergence; conditions: for Pigweed plant response rating: visual injury rating on 0 to 100 scale (0 no effect, 100 complete control)
# How it was run: as §1
# [13] = test system: ragweed (common ragweed, Ambrosia elatior); assay: Test A postemergence; conditions: for Ragweed plant response rating: visual injury rating on 0 to 100 scale (0 no effect, 100 complete control)
# How it was run: as §1
# [14] = test system: ryegrass, Italian (Italian ryegrass, Lolium multiflorum); assay: Test A postemergence; conditions: for Ryegrass, Italian plant response rating: visual injury rating on 0 to 100 scale (0 no effect, 100 complete control)
# How it was run: as §1
# [15] = test system: wheat (Triticum aestivum); assay: Test A postemergence; conditions: for Wheat plant response rating: visual injury rating on 0 to 100 scale (0 no effect, 100 complete control)
# How it was run: as §1
# [16] = test system: barnyardgrass (Echinochloa crus-galli); assay: Test B flooded paddy test; conditions: Flood, 250 g ai/ha; 0 to 100 scale where 0 is no effect and 100 is complete control; 13 to 15 d
# How it was run: (§2)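 Greenhouse paddy pots with 2-leaf stage plants received compound by direct addition to floodwater 3 cm deep, kept at that level. Scored visually at 13–15 d versus controls (0 no effect; 100 complete control).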
# [17] = test system: ducksalad (Heteranthera limosa); assay: Test B flooded paddy test; conditions: Flood, 250 g ai/ha; 0 to 100 scale where 0 is no effect and 100 is complete control; 13 to 15 d
# How it was run: as §2
# rice (Oryra sativa) = assay: Test B flooded paddy test; conditions: Flood, 250 g ai/ha; 0 to 100 scale where 0 is no effect and 100 is complete control; 13 to 15 d
# How it was run: as §2
# [18] = test system: sedge, umbrella (small-flower umbrella sedge, Cyperus difformis); assay: Test B flooded paddy test; conditions: Flood, 250 g ai/ha; 0 to 100 scale where 0 is no effect and 100 is complete control; 13 to 15 d
# How it was run: as §2
# [19] = 125 g ai/ha, Preemergence, visual injury after approximately 10 d, 0 to 100 scale where 0 is no effect and 100 is complete control
# [20] = 500 g ai/ha, preemergence, 0 to 100 scale, 0 = no effect, 100 = complete control
# [21] = 125 g ai/ha, postemergence, visual rating after approx. 10 d, 0 to 100 scale (0 no effect, 100 complete control)
# [22] = 500 g ai/ha, postemergence, visual injury, 0 to 100 scale (0 no effect, 100 complete control), approx. 10 d
# [23] = Postemergence, 500 g ai/ha, 0 to 100 scale where 0 is no effect and 100 is complete control
# [24] = 125 g ai/ha, postemergence, approx. 10 d
smiles,measurement,setting,value
CN1CC(c2cccc(F)c2)C(C(=O)Nc2cccc(F)c2F)C1=O (stereo not drawn) [Compound 632],"Plant response rating, Kochia",Kochia (Kochia scoparia) [1]; [19],50
same,"Plant response rating, Kochia",Kochia (Kochia scoparia) [1]; [20],70
same,"Plant response rating, Barnyardgrass",[2]; [19],90
same,"Plant response rating, Barnyardgrass",[2]; [20],90
same,"Plant response rating, Foxtail, Giant",[3]; [19],90
same,"Plant response rating, Foxtail, Giant",[3]; [20],90
same,"Plant response rating, Pigweed",[4]; [19],0
same,"Plant response rating, Pigweed",[4]; [20],70
same,"Plant response rating, Ragweed",[5]; [19],60
same,"Plant response rating, Ragweed",[5]; [20],70
same,"Plant response rating, Ryegrass, Italian",[6]; [19],60
same,"Plant response rating, Ryegrass, Italian",[6]; [20],70
same,"Plant response rating, Galium",[7]; [21],50
same,"Plant response rating, Galium",[7]; [22],50
same,"Plant response rating, Kochia",Kochia (Kochia scoparia) [8]; [21],60
same,"Plant response rating, Kochia",Kochia (Kochia scoparia) [8]; [22],60
same,"Plant response rating, Barnyardgrass",[9]; [21],90
same,"Plant response rating, Barnyardgrass",[9]; [23],90
same,"Plant response rating, Blackgrass",[10]; [21],50
same,"Plant response rating, Blackgrass",[10]; [23],60
same,"Plant response rating, Corn",corn (Zea mays); [21],20
same,"Plant response rating, Corn",corn (Zea mays); [23],80
same,"Plant response rating, Foxtail, Giant",[11]; [21],90
same,"Plant response rating, Foxtail, Giant",[11]; [22],90
same,"Plant response rating, Pigweed",[12]; [21],0
same,"Plant response rating, Pigweed",[12]; [22],40
same,"Plant response rating, Ragweed",[13]; [21],20
same,"Plant response rating, Ragweed",[13]; [22],30
same,"Plant response rating, Ryegrass, Italian",[14]; [21],30
same,"Plant response rating, Ryegrass, Italian",[14]; [22],50
same,"Plant response rating, Wheat",[15]; [21],30
same,"Plant response rating, Wheat",[15]; [22],60
same,"Plant response rating, Barnyardgrass",[16],80
same,"Plant response rating, Ducksalad",[17],100
same,"Plant response rating, Rice",rice (Oryra sativa),30
same,"Plant response rating, Sedge, Umbrella",[18],50
O=C1NCC(c2c(F)cccc2F)C1C(=O)Nc1ccc(F)cc1F (racemic) [Compound 517],"Plant response rating, Kochia",Kochia (Kochia scoparia) [1]; [19],0
same,"Kochia plant response rating (0 to 100 scale, 0 is no effect, 100 is complete control)","Kochia (Kochia scoparia) [1]; Preemergence, 500 g ai/ha",0
same,"Plant response rating, Barnyardgrass",[2]; [19],0
same,"Barnyardgrass plant response rating (0 to 100 scale, 0 is no effect, 100 is complete control)","[2]; Preemergence, 500 g ai/ha",0
same,"Plant response rating, Foxtail, Giant",[3]; [19],0
same,"Foxtail, Giant plant response rating (0 to 100 scale, 0 is no effect, 100 is complete control)","[3]; Preemergence, 500 g ai/ha",30
same,"Plant response rating, Pigweed",[4]; [19],0
same,"Pigweed plant response rating (0 to 100 scale, 0 is no effect, 100 is complete control)","[4]; Preemergence, 500 g ai/ha",0
same,"Plant response rating, Ragweed",[5]; [19],0
same,"Ragweed plant response rating (0 to 100 scale, 0 is no effect, 100 is complete control)","[5]; Preemergence, 500 g ai/ha",0
same,"Plant response rating, Ryegrass, Italian",[6]; [19],0
same,"Ryegrass, Italian plant response rating (0 to 100 scale, 0 is no effect, 100 is complete control)","[6]; Preemergence, 500 g ai/ha",0
same,Galium plant response rating,[7]; [24],0
same,"Plant response rating, Galium",[7]; [23],0
same,Kochia plant response rating,Kochia (Kochia scoparia) [8]; [24],0
same,"Plant response rating, Kochia",Kochia (Kochia scoparia) [8]; [23],0
same,Barnyardgrass plant response rating,"[9]; 125 g ai/ha, postemergence",20
same,"Plant response rating, Barnyardgrass",[9]; [23],30
same,Blackgrass plant response rating,"[10]; 125 g ai/ha, postemergence",0
same,"Plant response rating, Blackgrass",[10]; [23],0
same,Corn plant response rating,"corn (Zea mays); 125 g ai/ha, postemergence",0
same,"Plant response rating, Corn",corn (Zea mays); [23],0
same,"Foxtail, Giant plant response rating",[11]; [24],0
same,"Plant response rating, Foxtail, Giant",[11]; [23],0
same,Pigweed plant response rating,[12]; [24],0
same,"Plant response rating, Pigweed",[12]; [23],0
same,Ragweed plant response rating,[13]; [24],0
same,"Plant response rating, Ragweed",[13]; [23],0
same,"Ryegrass, Italian plant response rating",[14]; [24],0
same,"Plant response rating, Ryegrass, Italian",[14]; [23],0
same,Wheat plant response rating,[15]; [24],0
same,"Plant response rating, Wheat",[15]; [23],0
same,"Plant response rating, Barnyardgrass",[16],0
same,"Plant response rating, Ducksalad",[17],0
same,"Plant response rating, Rice",rice (Oryra sativa),0
same,"Plant response rating, Sedge, Umbrella",[18],0
C=C(C)CN1CC(c2cccc(C(F)(F)F)c2)C(C(=O)Nc2ccccc2F)C1=O (stereo not drawn) [Compound 481],"Plant response rating, Kochia",Kochia (Kochia scoparia) [1]; [19],0
same,"Kochia plant response rating (0 to 100 scale, 0 is no effect, 100 is complete control)","Kochia (Kochia scoparia) [1]; Preemergence, 500 g ai/ha",0
same,"Plant response rating, Barnyardgrass",[2]; [19],0
same,"Barnyardgrass plant response rating (0 to 100 scale, 0 is no effect, 100 is complete control)","[2]; Preemergence, 500 g ai/ha",10
same,"Plant response rating, Foxtail, Giant",[3]; [19],50
same,"Foxtail, Giant plant response rating (0 to 100 scale, 0 is no effect, 100 is complete control)","[3]; Preemergence, 500 g ai/ha",90
same,"Plant response rating, Pigweed",[4]; [19],0
same,"Pigweed plant response rating (0 to 100 scale, 0 is no effect, 100 is complete control)","[4]; Preemergence, 500 g ai/ha",0
same,"Plant response rating, Ragweed",[5]; [19],0
same,"Ragweed plant response rating (0 to 100 scale, 0 is no effect, 100 is complete control)","[5]; Preemergence, 500 g ai/ha",0
same,"Plant response rating, Ryegrass, Italian",[6]; [19],0
same,"Ryegrass, Italian plant response rating (0 to 100 scale, 0 is no effect, 100 is complete control)","[6]; Preemergence, 500 g ai/ha",0
same,Galium plant response rating,[7]; [24],0
same,"Plant response rating, Galium",[7]; [23],0
same,Kochia plant response rating,Kochia (Kochia scoparia) [8]; [24],0
same,"Plant response rating, Kochia",Kochia (Kochia scoparia) [8]; [23],0
same,Barnyardgrass plant response rating,"[9]; 125 g ai/ha, postemergence",0
same,"Plant response rating, Barnyardgrass",[9]; [23],20
same,Blackgrass plant response rating,"[10]; 125 g ai/ha, postemergence",0
same,"Plant response rating, Blackgrass",[10]; [23],0
same,Corn plant response rating,"corn (Zea mays); 125 g ai/ha, postemergence",0
same,"Plant response rating, Corn",corn (Zea mays); [23],0
same,"Foxtail, Giant plant response rating",[11]; [24],0
same,"Plant response rating, Foxtail, Giant",[11]; [23],20
same,Pigweed plant response rating,[12]; [24],0
same,"Plant response rating, Pigweed",[12]; [23],0
same,Ragweed plant response rating,[13]; [24],0
same,"Plant response rating, Ragweed",[13]; [23],0
same,"Ryegrass, Italian plant response rating",[14]; [24],0
same,"Plant response rating, Ryegrass, Italian",[14]; [23],0
same,Wheat plant response rating,[15]; [24],0
same,"Plant response rating, Wheat",[15]; [23],20
same,"Plant response rating, Barnyardgrass",[16],0
same,"Plant response rating, Ducksalad",[17],0
same,"Plant response rating, Rice",rice (Oryra sativa),0
same,"Plant response rating, Sedge, Umbrella",[18],0

# — patent publication US12077503B2, “Substituted cyclic amides and their use as herbicides” (FMC CORPORATION, priority 2015, dated 2024)
